How the values were obtained:
Type in all cases: functional
[1] = Effect of compound at 10 uM on platelet aggregation induced by 10 uM ADP
[2] = Effect of compound on elevation of cAMP levels induced by 2 uM PGE1 at 100 uM
[3] = Effect of compound on elevation of cAMP levels induced by 2 uM PGE1 at 10 uM
[4] = Effect of compound at 1 uM on platelet aggregation induced by 10 uM ADP
[5] = Effect of compound at 100 uM on platelet aggregation induced by 10 uM ADP
[6] = Platelet shape change and aggregation induced by the compound at 10 uM concentration
[7] = Platelet shape change and aggregation induced by the compound at 100 uM concentration
[8] = Effect of compound on elevation of cAMP levels induced by 2 uM PGE1 at 1 uM
[9] = Platelet shape change and aggregation induced by the compound at 1 uM concentration
[10] = Inhibitory effect of ADP (10 uM) on PGE1 (2 uM)-induced increase in platelet cAMP levels at 100 uM concentration of compound
[11] = Inhibitory effect of ADP (10 uM) on PGE1 (2 uM)-induced increase in platelet cAMP levels at 800 uM concentration of compound
[12] = Effect of compound at 800 uM on platelet aggregation induced by 10 uM ADP
[13] = Inhibitory effect of ADP (10 uM) on PGE1 (2 uM)-induced increase in platelet cAMP levels at 1 uM concentration of compound
[14] = Inhibitory concentration of compound on platelet aggregation
[15] = Inhibitory effect of ADP (10 uM) on PGE1 (2 uM)-induced increase in platelet cAMP levels at 10 uM concentration of compound

IC50 [14] [µM] | SMILES | Activity [1] | Activity [2] | Activity [3] | Activity [4] | Activity [5] | Light transmission [6] [%] | Light transmission [7] [%] | Activity [8] | Light transmission [9] [%] | Inhibition [10] [%] | Inhibition [11] [%] | Activity [12] | Inhibition [13] [%] | Inhibition [15] [%]
– | CCCCC#Cc1nc(N)c2ncn(C3O[C@H](COP(=O)(O)OP(=O)(O)O)[C@@H](O)[C@H]3O)c2n1 (stereo partly specified) | 99 | 38 | 50 | 98 | 100 | 17 | 41 | 58 | 0 | – | – | – | – | –
– | Nc1ncnc2c1ncn2[C@@H]1O[C@H](COP(=O)(O)OP(=O)(O)O)[C@@H](O)[C@H]1O [ADENOSINE DIPHOSPHATE] | – | – | 34 | – | – | 53 | – | – | – | – | – | – | – | –
85 | Nc1nc(C#Cc2ccccc2)nc2c1ncn2[C@@H]1O[C@H](COP(=O)(O)OP(=O)(O)OP(=O)(O)O)[C@@H](O)[C@H]1O | 81.6 | – | – | 81 | 46.6 | – | – | – | – | 5.7 | 68.9 | 0.2 | 1.6 | 1.6
60 | Nc1nc(C#Cc2ccccc2)nc2c1ncn2C1O[C@H](COP(=O)(O)OP(=O)(O)O)[C@@H](O)[C@H]1O (stereo partly specified) | 77.4 | – | – | 81.5 | 43.2 | – | – | – | – | 4.1 | 29.5 | 9.5 | 1 | 2.6
14 | CCCCC#Cc1nc(N)c2ncn(C3O[C@H](COP(=O)(O)O)[C@@H](O)[C@H]3O)c2n1 (stereo partly specified) | 54.4 | – | – | 75.2 | 11.8 | – | – | – | – | 13.6 | 58.2 | 0 | 6.7 | 9.6
130 | Nc1nc(C#Cc2ccccc2)nc2c1ncn2C1O[C@H](COP(=O)(O)O)[C@@H](O)[C@H]1O (stereo partly specified) | 92.8 | – | – | 86 | 58.4 | – | – | – | – | 14.9 | 74.4 | 0.2 | 4.6 | 4.1
– | CCCCC#Cc1nc(N)c2ncn(C3O[C@H](COP(=O)(O)OP(=O)(O)OP(=O)(O)O)[C@@H](O)[C@H]3O)c2n1 (stereo partly specified) | 90 | 27 | 35 | 92 | 64 | 9 | 39 | 59 | 0 | – | – | – | – | –
